Assay results: patent US12616751B2, “Photosensitizing antibody-fluorophore conjugates” (The USA, as represented by the Secretary, Department of …, priority 2010, dated 2026)
“And” between values parts separate entries of the source, which are not always exact repeats. Identical values can stand only once.

Columns and labels:
[1] = system: MDA-MB-468 cells; assay: In vitro PIT, microscopy before and after; assay type: cell-based
Method: For photoimmunotherapy (PIT), cells were seeded on 35 mm cover glass-bottomed dishes and incubated 24 hours. […] Culture medium was replaced with phenol red-free medium after washing with phosphate buffered saline (PBS). Cells were irradiated with light at 670 nm to 690 nm using a red light emitting diode (LED; FluorVivo; INDEC Systems Inc., Capitola, Calif.) with a power density of 2.6 mW cm^−2 as measured with optical power meter (PM 100, Thorlabs, Newton, N.J.). Cell viability was assessed 1 hour after treatment with LIVE/DEAD® Fixable Green Dead Cell Stain Kit (Invitrogen). After the treatment, cells were trypsinized and washed with PBS. Green fluorescent reactive dye was added in the cell suspension and incubated at room temperature for 30 minutes. Cells were then analyzed on flow cytometer (FACS Calibur, BD BioSciences, San Jose, Calif.).
This example describes additional results showing that the disclosed antibody-IR700 compounds selectively kill cells that express the appropriate protein. The photoimmunotherapy (PIT) methods are described in Example 2.

[2] = system: A431 (HER1+) tumors; assay: In vivo PIT efficacy in A431 tumors
Method: To determine the effect of Pan-IR700 or carrier alone followed by PIT, the following methods were used. […] Four days after A431 cell injection as described above, tumor volume reaching around 40 mm^3 were selected for the study. […] To test a short-term toxicity, 300 μg of Pan-IR700 was repeatedly administrated intravenously for non-tumor-bearing mice, twice a week, for 4 weeks.

[3] = system: A431 tumors; assay: Histological analysis immediately after PIT; assay type: in vivo, mice
[4] = system: A431 tumors; assay: In vivo FLT imaging after PIT; parameters: species or system mice
Method: Reagents. […] All other chemicals used were of reagent grade. […] Then the mixture was purified with a Sephadex G50 column (PD-10; GE Healthcare). The protein concentrations were determined with Coomassie Plus protein assay kit (Pierce Biotechnology) by measuring light absorption at 595 nm (8453 Value System; Agilent Technologies). […] The number of IR700 per antibody was approximately 4 for the 1:4.5 reaction conditions. The addition of 0.4% SDS to the sample dissociated the fluorophores from each other, effectively causing dequenching. Quenching efficiency (QE) for a particular conjugation is defined as the fluorescence intensity with SDS divided by fluorescence intensity without SDS. […] Pan-1R700 was kept at 4° C. in the refrigerator as a stock solution. Fluorescence lifetime measurements. FLT experiments were performed with the eXplore OptixTm-MX2 system (ART Advanced Research Technologies, Inc.) (Hutchinson et al., Biophys J 68:1574-82, 1995; Ma et al., Appl Opt 46:1650-7, 2007). A fixed pulsed laser diode was used as an excitation source at a wavelength of 670 nm. Region of interest (ROI) measurements with a spot size of 1.5 mm were selected at the image plane. […] Lifetime analysis was performed by using the ART OptiView (ART Advanced Research Technologies, Inc.). Lifetime values and lifetime mapping were calculated to fit fluorescence temporal point-spread functions (TPSFs) as single-exponential models with the Fit TPSF tool. Photoimmunotherapy for in vitro and in vivo models. PIT was performed with a red light-emitting diode (LED) light at 680 to 700 nm wavelength (Tech-LED, Marubeni America Co.) (Mitsunaga et al., Bioconjug Chem. 23:604-9, 2012). Power densities were measured with an optical power meter (PM 100, Thorlabs). Determination of FLT for Pan-IR700. Samples of Pan-IR700 at concentrations of 2.5, 5, 20, 40 pg/mL were prepared by dilution with PBS. The fluorescence intensities and lifetimes of each sample were determined using the Optix MX2 system at room temperature within a 1.7 ml centrifuge tube. To investigate the effect of PIT using Pan-1R700, the FLT of each sample at the concentration of 50 pg/mL was measured after irradiating the samples at a PIT dose of 0, 2, 4, 8, 15, 30 J/cm2. Cell line. […] The cell line was grown in RPMI 1640 (Life Technologies) containing 10% fetal bovine serum (Life Technologies), 0.03% L-glutamine, 100 units/mL penicillin, and 100 μg/mL streptomycin in 5% CO2 at 37° C. Cell pellet FLT studies A431. Cells were plated on […] cell culture flasks and incubated until confluent. Then Pan-IR700 conjugate was added to the media (1 pg/mL), and cells were incubated for 24 h at 37° C. Upon completion of incubation, cells were removed from the flasks, and centrifuged to obtain pellets. The resulting cell pellets were washed with PBS×3 and placed in 1.7 mL centrifuge tubes. The fluorescence intensities and lifetimes of each sample were then obtained. […] After that, these pellets were gently washed with PBS×1 and fluorescence intensity and lifetime images were obtained. To detect the antigen specific localization of IR700 and to confirm the morphological changes of A431 cells before and after PIT, fluorescence microscopy was performed using Olympus BX61 microscope (Olympus America) equipped with the following filters: a 590-650 nm excitation filter, a 665-740 nm band pass emission filter. […]

[5] = system: A431 cells; assay: Cell pellet FLT studies; assay type: cell-based
Method: Reagents. […] All other chemicals used were of reagent grade. […] Then the mixture was purified with a Sephadex G50 column (PD-10; GE Healthcare). The protein concentrations were determined with Coomassie Plus protein assay kit (Pierce Biotechnology) by measuring light absorption at 595 nm (8453 Value System; Agilent Technologies). […] The number of IR700 per antibody was approximately 4 for the 1:4.5 reaction conditions. The addition of 0.4% SDS to the sample dissociated the fluorophores from each other, effectively causing dequenching. Quenching efficiency (QE) for a particular conjugation is defined as the fluorescence intensity with SDS divided by fluorescence intensity without SDS. […] Pan-1R700 was kept at 4° C. in the refrigerator as a stock solution. Fluorescence lifetime measurements. FLT experiments were performed with the eXplore OptixTm-MX2 system (ART Advanced Research Technologies, Inc.) (Hutchinson et al., Biophys J 68:1574-82, 1995; Ma et al., Appl Opt 46:1650-7, 2007). […] Lifetime values and lifetime mapping were calculated to fit fluorescence temporal point-spread functions (TPSFs) as single-exponential models with the Fit TPSF tool. […] Power densities were measured with an optical power meter (PM 100, Thorlabs). […] The fluorescence intensities and lifetimes of each sample were determined using the Optix MX2 system at room temperature within a 1.7 ml centrifuge tube. To investigate the effect of PIT using Pan-1R700, the FLT of each sample at the concentration of 50 pg/mL was measured after irradiating the samples at a PIT dose of 0, 2, 4, 8, 15, 30 J/cm2. […] The fluorescence intensities and lifetimes of each sample were then obtained. […] After that, these pellets were gently washed with PBS×1 and fluorescence intensity and lifetime images were obtained. To detect the antigen specific localization of IR700 and to confirm the morphological changes of A431 cells before and after PIT, fluorescence microscopy was performed using Olympus BX61 microscope (Olympus America) equipped with the following filters: a 590-650 nm excitation filter, a 665-740 nm band pass emission filter. […]

With “Pan-IR700: Panitumumab (anti-human EGFR IgG2 MAb) conjugated to IR700; about 3 to 4 IR700 per antibody” the “cell killing by PIT (microscopy)” value [1] was “specifically killed”, the “tumor shrinkage of irradiated tumor” value ([2]; 300 μg, NIR light on day 1) was “Tumor shrinkage was confirmed on day 7” and the survival time ([2]; 30 J cm^−2) was “significant increases in survival time”. For the same substance, the tumor growth ([2]; 30 J cm^−2, day 3, 7, 10, 14 and 17 after treatment) was “significant tumor growth inhibition”, the lethal side effects ([2]; during or after the treatment) was “no lethal side effects were found” and the “antitumor activity, 50 μg versus 300 μg” value ([2]; following irradiation) was “less antitumor activity”. The “pathological analysis of tumor” value ([2]; four days following PIT) was “only scant viable A431 tumor cells were present”, the “day at which PIT treated tumors began to shrink” value ([2]; mouse, in vivo) was 2 days and the tissue edema ([2]; mouse, in vivo) was “tissue edema developed superficially”. For the same substance, the “necrosis (H-E histology)” value ([3]; 10 J/cm^2) was “necrotic cell damage was found in only limited areas”, the “necrosis (H-E histology)” value ([3]; 30 or 50 J/cm^2) was “Necrotic damage was diffuse and intense” and the “FLT shortening compared with untreated control” value ([4]; 10 J/cm^2, 48 hours after PIT) was 7.7%. The “FLT immediately after PIT, compared with no treatment controls” value ([4]; 30 J/cm^2) was 61.5+/−5.1% and 61.5 ± 15.1%, the “FLT immediately after PIT, of untreated tumors in the same mouse” value ([4]; 30 J/cm^2) was 61.5%+/−5.05 and the “FLT immediately after PIT, compared with no treatment controls” value ([4]; 50 J/cm^2) was 69.1+/−10.9%. For the same substance, the “FLT immediately after PIT, of untreated tumors in the same mouse” value ([4]; 50 J/cm^2) was 69.0%+110.92, the “shortening of FLT” value ([5]; 8 J/cm^2 versus before light exposure) was 9.1% and the “shortening of FLT” value ([5]; 15 J/cm^2 versus before light exposure) was 10.1%. For the same substance, the “shortening of FLT” value ([5]; 30 J/cm^2 versus before light exposure) was 13.1%.
